The source made the active and inactive calls. The rule behind the calls is not given here.

Assay type in all cases: functional, organism-based
The test system of assay [1] is Rattus norvegicus. Description: Antiosteoporotic effect in OVX-induced Wistar rat osteoporosis model assessed as increase in femur wet weight at 1 mg/kg/day, ig administered for 2 weeks relative to control.
Assay [2] has as its system Rattus norvegicus. Description: Antiosteoporotic effect in OVX-induced Wistar rat osteoporosis model assessed as increase in ultimate load of third lumbar vertebra at 1 mg/kg/day, ig administered for 2 weeks by […] relative to control.
Assay [3] deals with Rattus norvegicus. The assay is described as follows: Antiosteoporotic effect in OVX-induced Wistar rat osteoporosis model assessed as increase in serum estradiol level at 1 mg/kg/day, ig administered for 2 weeks by RIA relative to control.
The subject of assay [4] is Rattus norvegicus. The assay is described as follows: Antiosteoporotic effect in OVX-induced Wistar rat osteoporosis model assessed as increase in bone mineral content of left femur at 1 mg/kg/day, ig administered for 2 weeks by dual-energy X-ray absorptiometry relative to control.
Assay [5] deals with Rattus norvegicus. The assay is described as follows: Antiosteoporotic effect in OVX-induced Wistar rat osteoporosis model assessed as increase in bone calcium content at 1 mg/kg/day, ig administered for 2 weeks by flame atomic absorption spectroscopy relative to control.
Assay [6] concerns Rattus norvegicus. The assay is described as follows: Antiosteoporotic effect in OVX-induced Wistar rat osteoporosis model assessed as increase in trabecular thickness in left femur at 1 mg/kg/day, ig administered for 2 weeks by histomorhological analysis relative to control.
In assay [7] the test system is Rattus norvegicus. Description: Antiosteoporotic effect in OVX-induced Wistar rat osteoporosis model assessed as decrease in serum TRAP level at 1 mg/kg/day, ig administered for 2 weeks by colorimetric method relative to control.
The test system of assay [8] is Rattus norvegicus. The assay is described as follows: Antiosteoporotic effect in OVX-induced Wistar rat osteoporosis model assessed as increase in trabecular number in left femur at 1 mg/kg/day, ig administered for 2 weeks by histomorhological analysis relative to control.
Assay [9] concerns Rattus norvegicus. The assay is described as follows: Antiosteoporotic effect in OVX-induced Wistar rat osteoporosis model assessed as increase in femur ash weight at 1 mg/kg/day, ig administered for 2 weeks relative to control.
The test system of assay [10] is Rattus norvegicus. The assay is described as follows: Antiosteoporotic effect in OVX-induced Wistar rat osteoporosis model assessed as increase in serum calcium level at 1 mg/kg/day, ig administered for 2 weeks by colorimetric method relative to control.
Assay [11] concerns Rattus norvegicus. Description: Antiosteoporotic effect in OVX-induced Wistar rat osteoporosis model assessed as decrease in urinary DPD/Cr level at 1 mg/kg/day, ig administered for 2 weeks by ELISA relative to control. Conditions: Urine. On the technique in general: An ELISA detects its analyte on a solid surface through an enzyme-linked reagent.
For assay [12], the system named is Rattus norvegicus. Description: Antiosteoporotic effect in OVX-induced Wistar rat osteoporosis model assessed as increase in bone mineral density of left femur at 1 mg/kg/day, ig administered for 2 weeks by dual-energy X-ray absorptiometry relative to control.
For assay [13], the system named is Rattus norvegicus. The assay is described as follows: Antiosteoporotic effect in OVX-induced Wistar rat osteoporosis model assessed as increase in bone mineral content of third lumbar vertebra at 1 mg/kg/day, ig administered for 2 weeks by dual-energy X-ray absorptiometry relative to control.
For assay [14], the system named is Rattus norvegicus. Description: Antiosteoporotic effect in OVX-induced Wistar rat osteoporosis model assessed as decrease in serum ALP level at 1 mg/kg/day, ig administered for 2 weeks by colorimetric method relative to control.
The test system of assay [15] is Rattus norvegicus. The assay is described as follows: Antiosteoporotic effect in OVX-induced Wistar rat osteoporosis model assessed as decrease in serum CTX level at 1 mg/kg/day, ig administered for 2 weeks by ELISA relative to control.
Assay [16] relates to Rattus norvegicus. The assay is described as follows: Antiosteoporotic effect in OVX-induced Wistar rat osteoporosis model assessed as increase in ultimate load of left femur at 1 mg/kg/day, ig administered for 2 weeks by […] relative to control.
Assay [17] concerns Rattus norvegicus. The assay is described as follows: Antiosteoporotic effect in OVX-induced Wistar rat osteoporosis model assessed as increase in bone mineral density of third lumbar vertebra at 1 mg/kg/day, ig administered for 2 weeks by dual-energy X-ray absorptiometry relative to control.
Assay [18] has as its system Rattus norvegicus. Description: Antiosteoporotic effect in OVX-induced Wistar rat osteoporosis model assessed as decrease in trabecular separation in left femur at 1 mg/kg/day, ig administered for 2 weeks by histomorhological analysis relative to control.
Assay [19] concerns Rattus norvegicus. Description: Antiosteoporotic effect in OVX-induced Wistar rat osteoporosis model assessed as increase in femur dry weight at 1 mg/kg/day, ig administered for 2 weeks relative to control.
Assay [20] relates to Rattus norvegicus. Description: Antiosteoporotic effect in OVX-induced Wistar rat osteoporosis model assessed as increase in serum calcitonin level at 1 mg/kg/day, ig administered for 2 weeks by RIA relative to control.
In assay [21] the test system is Rattus norvegicus. Description: Antiosteoporotic effect in OVX-induced Wistar rat osteoporosis model assessed as increase in serum phosphorus level at 20 to 40 mg/kg/day, ig administered for 2 weeks by colorimetric method relative to control.
Assay [22] has as its system Rattus norvegicus. The assay is described as follows: Antiosteoporotic effect in OVX-induced Wistar rat osteoporosis model assessed as increase in bone mineral content of third lumbar vertebra at 20 to 40 mg/kg/day, ig administered for 2 weeks by dual-energy X-ray absorptiometry relative to control.
In assay [23] the test system is Rattus norvegicus. Description: Antiosteoporotic effect in OVX-induced Wistar rat osteoporosis model assessed as increase in bone calcium content at 40 mg/kg/day, ig administered for 2 weeks by flame atomic absorption spectroscopy relative to control.
Assay [24] concerns Rattus norvegicus. The assay is described as follows: Antiosteoporotic effect in OVX-induced Wistar rat osteoporosis model assessed as decrease in trabecular separation in left femur at 20 to 40 mg/kg/day, ig administered for 2 weeks by histomorhological analysis relative to control.
Assay [25] has as its system Rattus norvegicus. Description: Antiosteoporotic effect in OVX-induced Wistar rat osteoporosis model assessed as decrease in serum CTX level at 20 to 40 mg/kg/day, ig administered for 2 weeks by ELISA relative to control.
Assay [26] relates to Rattus norvegicus. Description: Antiosteoporotic effect in OVX-induced Wistar rat osteoporosis model assessed as increase in serum estradiol level at 40 mg/kg/day, ig administered for 2 weeks by RIA relative to control.
The subject of assay [27] is Rattus norvegicus. The assay is described as follows: Antiosteoporotic effect in OVX-induced Wistar rat osteoporosis model assessed as decrease in urinary DPD/Cr level at 20 to 40 mg/kg/day, ig administered for 2 weeks by ELISA relative to control. To be noted: Urine.
For assay [28], the system named is Rattus norvegicus. The assay is described as follows: Antiosteoporotic effect in OVX-induced Wistar rat osteoporosis model assessed as decrease in trabecular separation in third lumbar vertebra at 20 to 40 mg/kg/day, ig administered for 2 weeks by histomorhological analysis relative to control.
For assay [29], the system named is Rattus norvegicus. The assay is described as follows: Antiosteoporotic effect in OVX-induced Wistar rat osteoporosis model assessed as increase in ultimate load of left femur at 20 to 40 mg/kg/day, ig administered for 2 weeks by […] relative to control.
Assay [30] relates to Rattus norvegicus. The assay is described as follows: Antiosteoporotic effect in OVX-induced Wistar rat osteoporosis model assessed as increase in ultimate load of third lumbar vertebra at 20 to 40 mg/kg/day, ig administered for 2 weeks by […] relative to control.
Assay [31] concerns Rattus norvegicus. The assay is described as follows: Antiosteoporotic effect in OVX-induced Wistar rat osteoporosis model assessed as increase in bone mineral density of left femur at 20 to 40 mg/kg/day, ig administered for 2 weeks by dual-energy X-ray absorptiometry relative to control.
The test system of assay [32] is Rattus norvegicus. Description: Antiosteoporotic effect in OVX-induced Wistar rat osteoporosis model assessed as decrease in serum ALP level at 20 to 40 mg/kg/day, ig administered for 2 weeks by colorimetric method relative to control.
Assay [33] deals with Rattus norvegicus. The assay is described as follows: Antiosteoporotic effect in OVX-induced Wistar rat osteoporosis model assessed as increase in bone mineral content of left femur at 20 to 40 mg/kg/day, ig administered for 2 weeks by dual-energy X-ray absorptiometry relative to control.
Assay [34] relates to Rattus norvegicus. The assay is described as follows: Antiosteoporotic effect in OVX-induced Wistar rat osteoporosis model assessed as increase in trabecular thickness in third lumbar vertebra at 20 to 40 mg/kg/day, ig administered for 2 weeks by histomorhological analysis relative to control.
Assay [35] has as its system Rattus norvegicus. The assay is described as follows: Antiosteoporotic effect in OVX-induced Wistar rat osteoporosis model assessed as increase in trabecular thickness in left femur at 20 to 40 mg/kg/day, ig administered for 2 weeks by histomorhological analysis relative to control.
The subject of assay [36] is Rattus norvegicus. The assay is described as follows: Antiosteoporotic effect in OVX-induced Wistar rat osteoporosis model assessed as increase in femur dry weight at 40 mg/kg/day, ig administered for 2 weeks relative to control.
The subject of assay [37] is Rattus norvegicus. The assay is described as follows: Antiosteoporotic effect in OVX-induced Wistar rat osteoporosis model assessed as increase in trabecular number in third lumbar vertebra at 20 to 40 mg/kg/day, ig administered for 2 weeks by histomorhological analysis relative to control.
In assay [38] the test system is Rattus norvegicus. Description: Antiosteoporotic effect in OVX-induced Wistar rat osteoporosis model assessed as increase in trabecular number in left femur at 20 to 40 mg/kg/day, ig administered for 2 weeks by histomorhological analysis relative to control.
In assay [39] the test system is Rattus norvegicus. Description: Antiosteoporotic effect in OVX-induced Wistar rat osteoporosis model assessed as increase in femur ash weight at 40 mg/kg/day, ig administered for 2 weeks relative to control.
Assay [40] relates to Rattus norvegicus. The assay is described as follows: Antiosteoporotic effect in OVX-induced Wistar rat osteoporosis model assessed as increase in bone mineral density of third lumbar vertebra at 20 to 40 mg/kg/day, ig administered for 2 weeks by dual-energy X-ray absorptiometry relative to control.
In assay [41] the test system is Rattus norvegicus. The assay is described as follows: Antiosteoporotic effect in OVX-induced Wistar rat osteoporosis model assessed as decrease in serum TRAP level at 20 to 40 mg/kg/day, ig administered for 2 weeks by colorimetric method relative to control.
Assay [42] has as its system Rattus norvegicus. The assay is described as follows: Antiosteoporotic effect in OVX-induced Wistar rat osteoporosis model assessed as increase in serum calcitonin level at 40 mg/kg/day, ig administered for 2 weeks by RIA relative to control.
Assay [43] concerns Rattus norvegicus. Description: Antiosteoporotic effect in OVX-induced Wistar rat osteoporosis model assessed as increase in femur wet weight at 40 mg/kg/day, ig administered for 2 weeks relative to control.
Assay [44] concerns Rattus norvegicus. The assay is described as follows: Antiosteoporotic effect in OVX-induced Wistar rat osteoporosis model assessed as increase in serum calcium level at 20 to 40 mg/kg/day, ig administered for 2 weeks by colorimetric method relative to control.

Take `C#C[C@@]1(O)[C@H](O)C[C@H]2[C@@H]3CCc4cc(OC5CCCC5)ccc4[C@H]3CC[C@@]21C`: the outcome in the assay with Rattus norvegicus [1], with Rattus norvegicus [2], with Rattus norvegicus [3], in the assay on Rattus norvegicus [4], with Rattus norvegicus [5] and in the assay with Rattus norvegicus [6] was Active. In addition, the result in the assay on Rattus norvegicus [7], in the assay with Rattus norvegicus [8], with Rattus norvegicus [9], in the assay on Rattus norvegicus [10], with Rattus norvegicus [11] and with Rattus norvegicus [12] was Active. The outcome with Rattus norvegicus [13], in the assay with Rattus norvegicus [14], in the assay with Rattus norvegicus [15], in the assay on Rattus norvegicus [16], with Rattus norvegicus [17] and with Rattus norvegicus [18] was Active. For the same compound, the result in the assay on Rattus norvegicus [19] and in the assay with Rattus norvegicus [20] was Active.
`O=C1O[C@H]2[C@@H]3OC(=O)c4cc(O)c(O)c(O)c4-c4c(cc(O)c(O)c4O)C(=O)OC[C@H]2O[C@@H](OC(=O)c2cc(O)c(O)c(O)c2)[C@@H]3OC(=O)c2cc(O)c(O)c3c2[C@@H]2C1=CC(=O)[C@](O)(O3)C2(O)O`: the outcome with Rattus norvegicus [21] and in the assay with Rattus norvegicus [28] was inactive. Further, the outcome in the assay on Rattus norvegicus [22], in the assay on Rattus norvegicus [23], in the assay on Rattus norvegicus [24], in the assay on Rattus norvegicus [25], with Rattus norvegicus [26] and in the assay with Rattus norvegicus [27] was Active. For the same compound, the result in the assay on Rattus norvegicus [29], in the assay with Rattus norvegicus [30], in the assay on Rattus norvegicus [31], in the assay with Rattus norvegicus [32], in the assay on Rattus norvegicus [33] and in the assay with Rattus norvegicus [34] was Active. Further, the result in the assay with Rattus norvegicus [35], in the assay on Rattus norvegicus [36], in the assay on Rattus norvegicus [37], in the assay on Rattus norvegicus [38], in the assay with Rattus norvegicus [39] and in the assay with Rattus norvegicus [40] was Active. Besides, the result in the assay with Rattus norvegicus [41], in the assay with Rattus norvegicus [42], in the assay on Rattus norvegicus [43] and in the assay on Rattus norvegicus [44] was Active.

The values above are taken from ChEMBL document CHEMBL3393012, “Osteoprotective effect of geraniin against ovariectomy-induced bone loss in rats” (Bioorg Med Chem Lett, 2015).
